# Measured values reported in patent US12358893B2, “Metalloenzyme inhibitor compounds” (Corxel Pharmaceuticals Hong Kong Limited, priority 2019, dated 2025).
# Experiments:
# [1] = target: T1, recombinant human CYP11B2 (Homo sapiens, UniProt P19099); assay: CYP11B2 enzyme assay with enzyme enriched microsomes, aldosterone measured by LC-MS; type: biochemical; settings: microsomes from V79-4 cells; 11-deoxycorticosterone at Km; read-out: hCYP11B2 IC50
# T1 construct: made in house; host or cells: V79-4 cells (Chinese hamster lung fibroblasts); enzyme-enriched microsomal fraction of the lysate
# T1 sequence (P19099 25-503): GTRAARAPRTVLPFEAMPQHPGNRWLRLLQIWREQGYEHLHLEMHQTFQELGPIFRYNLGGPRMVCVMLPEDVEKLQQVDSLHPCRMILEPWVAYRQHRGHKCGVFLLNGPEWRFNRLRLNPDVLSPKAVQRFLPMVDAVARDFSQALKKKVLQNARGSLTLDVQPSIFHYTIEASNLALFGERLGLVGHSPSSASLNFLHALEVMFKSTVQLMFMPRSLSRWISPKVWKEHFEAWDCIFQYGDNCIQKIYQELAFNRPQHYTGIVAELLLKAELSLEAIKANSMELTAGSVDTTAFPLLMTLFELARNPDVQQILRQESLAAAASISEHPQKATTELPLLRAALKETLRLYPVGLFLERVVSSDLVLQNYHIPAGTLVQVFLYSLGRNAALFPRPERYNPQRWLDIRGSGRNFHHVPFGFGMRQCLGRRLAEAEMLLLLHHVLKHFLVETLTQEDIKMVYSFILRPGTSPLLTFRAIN
# Experimental: (§1) V79-4 cells expressing recombinant andrenodoxin and andrenodoxin reductase with either recombinant human CYP11B2 or CYP11B1 were prepared according to methods previously described (LaSala et al 2009 Anal Bioch 394:56-61). An enzyme enriched microsomal fraction was prepared from cellular lysates and subsequently used as the enzyme source for determining inhibitor IC50s. The substrate Km values were experimentally determined for 11-deoxycorticosterone (CYP11B2 substrate) and 11-deoxycortisol (CYP11B1 substrate). Enzyme assays for inhibitor screening employed CYP11B2 and CYP11B1 enzyme enriched microsomes and were run at the Km of the respective substrates. Products of the enzyme reactions, aldosterone for CYP11B2 or cortisol for CYP11B1, were measured by LC-MS. Assays were run under conditions of less than 20% substrate turnover. Inhibitor IC50s were generated by determining the product formation in the absence or presence of inhibitor at various concentrations. In the absence of the test compound, the product formed (Pt) in each data set was defined as 100% activity. In the absence of enzyme, the product formed (Pb) in each data set was defined as 0% activity. The percent activity in the presence of each inhibitor was calculated according to the following equation: % activity=(P−Pb)/(Pt−Pb), where P=the product formed in the presence of the inhibitor. The IC50 value was defined as the inhibitor concentration causing a 50% decrease in activity relative to the no inhibitor control reaction.
# [2] = target: T2, recombinant human CYP11B1 (Homo sapiens, UniProt P15538); assay: CYP11B1 enzyme assay with enzyme enriched microsomes, cortisol measured by LC-MS; type: biochemical; settings: microsomes from V79-4 cells; 11-deoxycortisol at Km; read-out: hCYP11B1 IC50
# T2 construct: made in house; host or cells: V79-4 cells (Chinese hamster lung fibroblasts); enzyme-enriched microsomal fraction of the lysate
# T2 sequence (P15538 25-503): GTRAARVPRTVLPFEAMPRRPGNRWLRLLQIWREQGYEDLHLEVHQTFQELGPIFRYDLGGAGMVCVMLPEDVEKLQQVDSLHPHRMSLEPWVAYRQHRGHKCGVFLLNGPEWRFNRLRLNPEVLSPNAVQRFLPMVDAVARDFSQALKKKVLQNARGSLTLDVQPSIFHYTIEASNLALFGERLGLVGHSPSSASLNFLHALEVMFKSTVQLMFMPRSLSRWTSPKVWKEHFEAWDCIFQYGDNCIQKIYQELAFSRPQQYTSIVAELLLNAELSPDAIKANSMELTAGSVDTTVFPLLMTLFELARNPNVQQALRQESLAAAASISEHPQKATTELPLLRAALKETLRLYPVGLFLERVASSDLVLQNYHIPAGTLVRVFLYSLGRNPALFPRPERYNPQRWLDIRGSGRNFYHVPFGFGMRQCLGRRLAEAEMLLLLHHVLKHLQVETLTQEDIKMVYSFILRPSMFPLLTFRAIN
# Experimental: as §1
SMILES,IC50 [1],IC50 [2]
"Fc1ccc2ncn(-c3nc4ccc(F)cc4n3C3CC3)c2c1 [Example 19, 1′-cyclopropyl-6,6′-difluoro-1′H-1,2′-bibenzo[d]imidazole]",0.001 to 0.1 µM,1 to 10 µM
"N#Cc1ccc2c(c1)ncn2-c1nc2cc(F)c(F)cc2n1C1CC1 [Example 23, 1′-cyclopropyl-5′,6′-difluoro-1′H-[1,2′-bibenzo[d]imidazole]-5-carbonitrile]",0.001 to 0.1 µM,1 to 10 µM
"Fc1cc2nc(-n3cnc4ccncc43)n(C3CC3)c2cc1F [Example 36, 3-(1-cyclopropyl-5,6-difluoro-1H-benzo[d]imidazol-2-yl)-3H-imidazo[4,5-c] pyridine]",0.001 to 0.1 µM,1 to 10 µM
"N#Cc1ccc2nc(-n3cnc4cc(OC(F)F)ccc43)n(C3CC3)c2c1 [Example 49, 1′-cyclopropyl-5-(difluoromethoxy)-1′H-[1,2′-bibenzo[d]imidazole]-6′-carbonitrile]",0.001 to 0.1 µM,0.1 to 1 µM
"Fc1ccc2nc(-n3cnc4ccc(OC(F)(F)F)cc43)n(C3CC3)c2c1 [Example 28, 1′-cyclopropyl-6′-fluoro-6-(trifluoromethoxy)-1′H-1,2′-bibenzo[d]imidazole]",0.1 to 1 µM,> 10 µM
"CS(=O)(=O)Nc1ccc2c(c1)ncn2-c1nc2ccc(C#N)cc2n1C1CC1 [Example 47, N-(6′-cyano-1′-cyclopropyl-1′H-[1,2′-bibenzo[d]imidazol]-5-yl) methanesulfonamide]",0.1 to 1 µM,> 10 µM
"N#Cc1ccc2c(c1)ncn2-c1nc2ccc(F)cc2n1C1CC1 [Example 6, 1′-cyclopropyl-6′-fluoro-1′H-[1,2′-bibenzo[d]imidazole]-5-carbonitrile]",0.001 to 0.1 µM,1 to 10 µM
"N#Cc1ccc2nc(-n3cnc4ccc(OC(F)F)cc43)n(C3CC3)c2c1 [Example 50, 1′-cyclopropyl-6-(difluoromethoxy)-1′H-[1,2′-bibenzo[d]imidazole]-6′-carbonitrile]",0.001 to 0.1 µM,1 to 10 µM
"N#Cc1ccc2nc(-n3cnc4cc(F)c(F)cc43)n(C3CC3)c2n1 [Example 32, 3-cyclopropyl-2-(5,6-difluoro-1H-benzo[d]imidazol-1-yl)-3H-imidaz[4,5-b]pyridine-5-carbonitrile]",0.001 to 0.1 µM,1 to 10 µM
"O=C(O)c1ccc2c(c1)ncn2-c1nc2cc(F)c(F)cc2n1C1CC1 [Example 44, 1′-cyclopropyl-5′,6′-difluoro-1′H-[1,2′-bibenzo[d]imidazole]-5-carboxylic acid]",1 to 10 µM,> 10 µM
"CS(=O)(=O)Nc1ccc2ncn(-c3nc4ccc(C#N)cc4n3C3CC3)c2c1 [Example 48, N-(6′-cyano-1′-cyclopropyl-1′H-[1,2′-bibenzo[d]imidazol]-6-yl) methanesulfonamide]",1 to 10 µM,> 10 µM
"COc1ccc2c(c1)ncn2-c1nc2ccc(F)cc2n1C1CC1 [Example 12, 1′-cyclopropyl-6′-fluoro-5-methoxy-1′H-1,2′-bibenzo[d]imidazole]",0.001 to 0.1 µM,0.1 to 1 µM
"CS(=O)(=O)Nc1ccc2ncn(-c3nc4cc(F)c(F)cc4n3C3CC3)c2c1 [Example 45, N-(1′-cyclopropyl-5′,6′-difluoro-1′H-[1,2′-bibenzo[d]imidazol]-6-yl) methanesulfonamide]",1 to 10 µM,> 10 µM
"N#Cc1ccc2ncn(-c3nc4cc(F)c(F)cc4n3C3CC3)c2c1 [Example 24, 1′-cyclopropyl-5′,6′-difluoro-1′H-[1,2′-bibenzo[d]imidazole]-6-carbonitrile]",0.1 to 1 µM,> 10 µM
"Cc1cccc2c1ncn2-c1nc2ccc(F)cc2n1C1CC1 [Example 14, 1′-cyclopropyl-6′-fluoro-4-methyl-1′H-1,2′-bibenzo[d]imidazole]",1 to 10 µM,> 10 µM
"Fc1ccc2nc(-n3cnc4ccccc43)n(C3CC3)c2c1F [Example 2, 1′-cyclopropyl-6′,7′-difluoro-1′H-1,2′-bibenzo[d]imidazole]",0.001 to 0.1 µM,1 to 10 µM

SMILES,IC50 [1],IC50 [2]
"Fc1ccc2nc(-n3cnc4cc(OC(F)(F)F)ccc43)n(C3CC3)c2c1 [Example 27, 1′-cyclopropyl-6′-fluoro-5-(trifluoromethoxy)-1′H-1,2′-bibenzo[d]imidazole]",0.001 to 0.1 µM,0.1 to 1 µM
"CS(=O)(=O)N(c1ccc2c(c1)ncn2-c1nc2ccc(F)c(F)c2n1C1CC1)S(C)(=O)=O [Example 30, N-(1′-cyclopropyl-6′,7′-difluoro-1′H-[1,2′-bibenzo[d]imidazol]-5-yl)-N-(methylsulfonyl) methanesulfonamide]",1 to 10 µM,> 10 µM
"Fc1ccc2nc(-n3cnc4ccccc43)n(C3CC3)c2c1 [Example 1, 1′-cyclopropyl-6′-fluoro-1′H-1,2′-bibenzo[d]imidazole]",0.001 to 0.1 µM,0.1 to 1 µM
"CCn1c(-n2cnc3cc(F)c(F)cc32)nc2ccc(C#N)cc21 [Example 22, 1′-ethyl-5,6-difluoro-1′H-[1,2′-bibenzo[d]imidazole]-6′-carbonitrile]",0.001 to 0.1 µM,1 to 10 µM
"COc1ccc2ncn(-c3nc4ccc(F)cc4n3C3CC3)c2c1 [Example 13, 1′-cyclopropyl-6′-fluoro-6-methoxy-1′H-1,2′-bibenzo[d]imidazole]",0.001 to 0.1 µM,0.1 to 1 µM
"Fc1cc2ncn(-c3nc4ccc(Cl)cc4n3C3CC3)c2cc1F [Example 26, 6′-chloro-1′-cyclopropyl-5,6-difluoro-1′H-1,2′-bibenzo[d]imidazole]",0.001 to 0.1 µM,1 to 10 µM
"COc1cc2ncn(-c3nc4ccc(F)cc4n3C3CC3)c2cc1OC [Example 5, 1′-cyclopropyl-6′-fluoro-5,6-dimethoxy-1′H-1,2′-bibenzo[d]imidazole]",0.001 to 0.1 µM,1 to 10 µM
"CCc1ccc2ncn(-c3nc4ccc(F)cc4n3C3CC3)c2c1 [Example 11, 1′-cyclopropyl-6-ethyl-6′-fluoro-1′H-1,2′-bibenzo[d]imidazole]",0.001 to 0.1 µM,1 to 10 µM
"Fc1cc2nc(-n3cnc4cc(OC(F)F)ccc43)n(C3CC3)c2cc1F [Example 52, 1′-cyclopropyl-5-(difluoromethoxy)-5′,6′-difluoro-1′H-1,2′-bibenzo[d]imidazole]",0.001 to 0.1 µM,0.1 to 1 µM
"Fc1ccc2nc(-n3cnc4cc(C(F)(F)F)ccc43)n(C3CC3)c2c1 [Example 20, 1′-cyclopropyl-6′-fluoro-5-(trifluoromethyl)-1′H-1,2′-bibenzo[d]imidazole]",0.001 to 0.1 µM,0.1 to 1 µM
"Fc1cc2ncn(-c3nc4cc(F)c(F)cc4n3C3CC3)c2cc1F [Example 17, 1′-cyclopropyl-5,5′,6,6′-tetrafluoro-1′H-1,2′-bibenzo[d]imidazole]",0.001 to 0.1 µM,1 to 10 µM
"Cc1ccc2ncn(-c3nc4ccc(F)cc4n3C3CC3)c2c1 [Example 9, 1′-cyclopropyl-6′-fluoro-6-methyl-1′H-1,2′-bibenzo[d]imidazole]",0.001 to 0.1 µM,0.1 to 1 µM
"Fc1ccc2nc(-n3cnc4ccc(C(F)(F)F)cc43)n(C3CC3)c2c1 [Example 21, 1′-cyclopropyl-6′-fluoro-6-(trifluoromethyl)-1′H-1,2′-bibenzo[d]imidazole]",0.001 to 0.1 µM,1 to 10 µM
"Fc1ccc2nc(-n3cnc4cc(F)c(F)cc43)n(C3CC3)c2c1 [Example 4, 1′-cyclopropyl-5,6,6′-trifluoro-1′H-1,2′-bibenzo[d]imidazole]",0.001 to 0.1 µM,1 to 10 µM
"Fc1cc2ncn(-c3nc4ccc(F)c(F)c4n3C3CC3)c2cc1F [Example 15, 1′-cyclopropyl-5,6,6′,7′-tetrafluoro-1′H-1,2′-bibenzo[d]imidazole]",0.001 to 0.1 µM,1 to 10 µM
